Where two headings read alike, the source gives them in different places.
Assay: 14-day oral gavage toxicokinetic study in rats
Assay type: in vivo
Conditions: female, rat, plasma, po; for half-life: read-out: t½ (converted); for concentration at 0.5 h / concentration at 2 h / concentration at 4 h / concentration at 8 h / concentration at 12 h / concentration at 24 h / concentration at 1 h / concentration at […]: rats
Protocol: Plasma was obtained from blood samples collected from rats in a composite sampling scheme, with 3 samples collected per sex, per dose, at each target collection time, as illustrated in Table 21 to Table 25. Samples were collected from the vehicle control group on Day 1 and Day 14 at 3 hour after administration. […] Blood samples were collected in tubes containing K3EDTA as an anticoagulant and placed on ice until processed to plasma via centrifugation. Samples were stored frozen at −80° C. until shipment to the bioanalytical laboratory for analysis.
The following parameters were determined:
Cmax: Maximum observed plasma concentration (ng/mL).
A value of 0 ng/mL was assigned to all values below the lower limit of quantitation (BLQ, <10.0 ng/mL).
AUC(0-inf): Area under the plasma concentration vs. time curve extrapolated from 0 to infinity (ng*h/mL), calculated as AUC(0-t)+AUC(t-inf) where AUC(t-inf) is calculated as last measurable concentration (CLast) divided by ke, where ke is the elimination rate constant determined by linear regression of the last three analytically measured points on the log plasma concentration vs. time curve. The selection criteria of the data points for inclusion in the calculation of ke required that at least three data points representing the terminal phase (after Tmax) were regressed and that R2≧0.850 when rounded.
CL: Clearance (L/h/kg), calculated as the dose divided by AUC(0-t).
Vd: Volume of distribution (L/kg), calculated as dose divided by the product of ke and AUC(0-inf).
Vdss: Steady state volume of distribution (L/kg), calculated as clearance […] mean residence time, where mean residence time is calculated as the area under the first moment curve divided by AUC(0-t).
t½: Elimination half-life (h), calculated as ln(2)/ke, where ke is the elimination rate constant determined by linear regression. Half-life was defined as not determined if regression criteria (specified in AUC(0-inf) above) were not met.
Cmax/Dose: Normalized Cmax, calculated as Cmax divided by total dose.
AUC/Dose: Normalized AUC, calculated as AUC(0-t) divided by total dose.
ii. Statistical Analysis Mean and standard deviation (SD) were calculated in Watson. Values of BLQ were assigned a value of 0 ng/mL for mean calculations. Concentration values and derived TK parameters were reported to three significant figures.

[1] = 5 mg/kg, oral 5 mg/kg, Study Day 14, Female
[2] = 15 mg/kg, oral 15 mg/kg, Study Day 1, Female
[3] = 15 mg/kg, oral 15 mg/kg, Study Day 14, Female

Which results are given for CN1CCN(c2ccc(Nc3ncc4cc5n(c4n3)C3(CCCCC3)CNC5=O)nc2)CC1 [Compound 1, 2′-((5-(4-methylpiperazin-1-yl)pyridin-2-yl)amino)-7′,8′-dihydro-6′H-spiro[cyclohexane-1,9′-pyrazino[1′,2′:1,5]pyrrolo[2,3-d]pyrimidin]-6′-one]?
Tmax [1]: 1 h; half-life [1]: 4.41 h; concentration at 0.5 h (15 mg/kg, Individual Compound 1 Plasma Concentration, daily oral 15 mg/kg, Day 1, Female, 0.5 h): 1050 ng/mL; concentration at 2 h (15 mg/kg, Individual Compound 1 Plasma Concentration, daily oral 15 mg/kg, Day 1, Female, 2 h): 1820 ng/mL; concentration at 4 h (15 mg/kg, Individual Compound 1 Plasma Concentration, daily oral 15 mg/kg, Day 1, Female, 4 h): 1750 ng/mL; concentration at 8 h (15 mg/kg, Individual Compound 1 Plasma Concentration, daily oral 15 mg/kg, Day 1, Female, 8 h): 1250 ng/mL; concentration at 12 h (15 mg/kg, Individual Compound 1 Plasma Concentration, daily oral 15 mg/kg, Day 1, Female, 12 h): 1010 ng/mL; concentration at 24 h (15 mg/kg, Individual Compound 1 Plasma Concentration, daily oral 15 mg/kg, Day 1, Female, 24 h): 63.9 ng/mL; concentration at 0.5 h (15 mg/kg, Individual Compound 1 Plasma Concentration, daily oral 15 mg/kg, Day 14, Female, 0.5 h): 908 ng/mL; concentration at 1 h (15 mg/kg, Individual Compound 1 Plasma Concentration, daily oral 15 mg/kg, Day 14, Female, 1 h): 1410 ng/mL; concentration at 4 h (15 mg/kg, Individual Compound 1 Plasma Concentration, daily oral 15 mg/kg, Day 14, Female, 4 h): 1580 ng/mL; concentration at 8 h (15 mg/kg, Individual Compound 1 Plasma Concentration, daily oral 15 mg/kg, Day 14, Female, 8 h): 996 ng/mL; concentration at 12 h (15 mg/kg, Individual Compound 1 Plasma Concentration, daily oral 15 mg/kg, Day 14, Female, 12 h): 1060 ng/mL; concentration at 24 h (15 mg/kg, Individual Compound 1 Plasma Concentration, daily oral 15 mg/kg, Day 14, Female, 24 h): 106 ng/mL; concentration at […] (15 mg/kg, Individual Compound 1 Plasma Concentration, daily oral 15 mg/kg, Day 14, Female, […]): 117 ng/mL; concentration at 0.5 h (15 mg/kg, Mean Compound 1 Plasma Concentration, oral 15 mg/kg, Day 1, 0.5 h, Female): 1180 ng/mL; concentration at 1 h (15 mg/kg, Mean Compound 1 Plasma Concentration, oral 15 mg/kg, Day 1, 1 h, Female): 1530 ng/mL; concentration at 2 h (15 mg/kg, Mean Compound 1 Plasma Concentration, oral 15 mg/kg, Day 1, 2 h, Female): 1910 ng/mL; concentration at 4 h (15 mg/kg, Mean Compound 1 Plasma Concentration, oral 15 mg/kg, Day 1, 4 h, Female): 1690 ng/mL; concentration at 8 h (15 mg/kg, Mean Compound 1 Plasma Concentration, oral 15 mg/kg, Day 1, 8 h, Female): 1440 ng/mL; concentration at 12 h (15 mg/kg, Mean Compound 1 Plasma Concentration, oral 15 mg/kg, Day 1, 12 h, Female): 916 ng/mL; concentration at 24 h (15 mg/kg, Mean Compound 1 Plasma Concentration, oral 15 mg/kg, Day 1, 24 h, Female): 84.5 ng/mL; concentration at […] (15 mg/kg, Mean Compound 1 Plasma Concentration, oral 15 mg/kg, Day 1, […], Female): 109 ng/mL; concentration at 0.5 h (15 mg/kg, Mean Compound 1 Plasma Concentration, oral 15 mg/kg, Day 14, 0.5 h, Female): 1170 ng/mL; concentration at 1 h (15 mg/kg, Mean Compound 1 Plasma Concentration, oral 15 mg/kg, Day 14, 1 h, Female): 1450 ng/mL; concentration at 2 h (15 mg/kg, Mean Compound 1 Plasma Concentration, oral 15 mg/kg, Day 14, 2 h, Female): 1490 ng/mL; concentration at 4 h (15 mg/kg, Mean Compound 1 Plasma Concentration, oral 15 mg/kg, Day 14, 4 h, Female): 1570 ng/mL; concentration at 8 h (15 mg/kg, Mean Compound 1 Plasma Concentration, oral 15 mg/kg, Day 14, 8 h, Female): 979 ng/mL; concentration at 12 h (15 mg/kg, Mean Compound 1 Plasma Concentration, oral 15 mg/kg, Day 14, 12 h, Female): 805 ng/mL; concentration at 24 h (15 mg/kg, Mean Compound 1 Plasma Concentration, oral 15 mg/kg, Day 14, 24 h, Female): 130 ng/mL; concentration at […] (15 mg/kg, Mean Compound 1 Plasma Concentration, oral 15 mg/kg, Day 14, […], Female): 131 ng/mL; AUC(0-inf) [2]: 23700 ng·h/mL; AUC(0-t) [2]: 23200 ng·h/mL; Cmax [2]: 1910 ng/mL; Tmax [2]: 2 h; AUC(0-inf) [3]: 20800 ng·h/mL; AUC(0-t) [3]: 19800 ng·h/mL; Cmax [3]: 1570 ng/mL; Tmax [3]: 4 h; half-life [3]: 5.24 h; concentration at 0.5 h (30 mg/kg, Individual Compound 1 Plasma Concentration, daily oral 30 mg/kg, Day 1, Female, 0.5 h): 2030 ng/mL; concentration at 1 h (30 mg/kg, Individual Compound 1 Plasma Concentration, daily oral 30 mg/kg, Day 1, Female, 1 h): 2500 ng/mL; concentration at 2 h (30 mg/kg, Individual Compound 1 Plasma Concentration, daily oral 30 mg/kg, Day 1, Female, 2 h): 3440 ng/mL; concentration at 4 h (30 mg/kg, Individual Compound 1 Plasma Concentration, daily oral 30 mg/kg, Day 1, Female, 4 h): 2570 ng/mL; concentration at 8 h (30 mg/kg, Individual Compound 1 Plasma Concentration, daily oral 30 mg/kg, Day 1, Female, 8 h): 2480 ng/mL; concentration at 12 h (30 mg/kg, Individual Compound 1 Plasma Concentration, daily oral 30 mg/kg, Day 1, Female, 12 h): 2000 ng/mL; concentration at 24 h (30 mg/kg, Individual Compound 1 Plasma Concentration, daily oral 30 mg/kg, Day 1, Female, 24 h): 310 ng/mL; concentration at […] (30 mg/kg, Individual Compound 1 Plasma Concentration, daily oral 30 mg/kg, Day 1, Female, […]): 114 ng/mL; concentration at 0.5 h (30 mg/kg, Individual Compound 1 Plasma Concentration, daily oral 30 mg/kg, Day 14, Female, 0.5 h): 1450 ng/mL; concentration at 1 h (30 mg/kg, Individual Compound 1 Plasma Concentration, daily oral 30 mg/kg, Day 14, Female, 1 h): 2740 ng/mL; concentration at 2 h (30 mg/kg, Individual Compound 1 Plasma Concentration, daily oral 30 mg/kg, Day 14, Female, 2 h): 2170 ng/mL; concentration at 4 h (30 mg/kg, Individual Compound 1 Plasma Concentration, daily oral 30 mg/kg, Day 14, Female, 4 h): 2700 ng/mL; concentration at 8 h (30 mg/kg, Individual Compound 1 Plasma Concentration, daily oral 30 mg/kg, Day 14, Female, 8 h): 1970 ng/mL; concentration at 12 h (30 mg/kg, Individual Compound 1 Plasma Concentration, daily oral 30 mg/kg, Day 14, Female, 12 h): 2290 ng/mL; concentration at 24 h (30 mg/kg, Individual Compound 1 Plasma Concentration, daily oral 30 mg/kg, Day 14, Female, 24 h): 280 ng/mL
